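Briefly, cells in 96-well plates were exposed to five compound concentrations for 48 h, and endpoints were estimated by linear interpolation. Here, GI50 denotes the concentration required for 50% inhibition of growth. Definition used: TGI = concentration required for complete inhibition of growth.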 Where a SMILES comes first, the peptide text is derived from it. [ ]: non-standard residue; d: D form. ξ: configuration not given here. ξThz(5,5-Me2) = CC1(C)SCNC1C(=O)O
Key:
Assay in all cases: DTP human tumour cell line panel, 48 h
DU-145 prostate = system: DU-145 prostate
HL-60(TB) leukemia = system: HL-60(TB) leukemia
HOP-92 NSCLC = system: HOP-92 NSCLC
NCI-H226 lung = system: NCI-H226 lung
NCI-H23 lung = system: NCI-H23 lung
UACC-257 melanoma = system: UACC-257 melanoma

| SMILES | GI50 (DU-145 prostate) [µM] | TGI (DU-145 prostate) [µM] | GI50 (HL-60(TB) leukemia) [µM] | TGI (HL-60(TB) leukemia) [µM] | TGI (HOP-92 NSCLC) [µM] | TGI (NCI-H226 lung) [µM] | TGI (NCI-H23 lung) [µM] | TGI (UACC-257 melanoma) [µM] |
| --- | --- | --- | --- | --- | --- | --- | --- | --- |
| COc1cc(OC)cc(-c2ccc(-c3ccc(C(=N)N)cc3)s2)c1 | 1.77 | 3.24 | 1.9 | 3.74 |  |  |  |  |
| CSCC[C@H](NC(=O)[C@H](CC(C)C)NC(=O)[C@H](Cc1c[nH]cn1)NC(=O)CNC(=O)C1N(C(=O)[C@@H](C)NC(=O)[C@H](Cc2c[nH]c3ccccc23)NC(=O)[C@H](CCC(N)=O)NC(=O)[C@@H](N)CC(N)=O)CSC1(C)C)C(N)=O (stereo partly drawn) (H-NQW[dA][ξThz(5,5-Me2)]GHLM-NH2) |  |  |  |  | > 25 | > 25 | > 25 | > 25 |

Reference: PubChem BioAssay (NCI)
